Experimental data taken from patent publication US10040798B2, “Pyrrolopyridazine inhibitors of IRAK4 activity” (MERCK SHARP & DOHME CORP., priority 2015, dated 2018).
Where a name gives a salt, the structure may show the parent alone.

Target: IRAK4 (Homo sapiens (Human), UniProt Q9NWZ3)
Experiment: IRAK4 Kinase Assay (IMAP fluorescence polarization)
Format: biochemical
Settings: 0.5 nM GST tagged IRAK4, 100 μM ATP, 30 minutes at 25° C., IMAP FP
How it was run: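 GST-tagged IRAK4 (0.5 nM) phosphorylated 100 nM fluorescent peptide RP7030 with 100 μM ATP in 10 mM Tris-HCl pH 7.2, MgCl2, DTT and Tween 20 for 30 min at 25 °C. Phosphorylation was read as the increase in fluorescence polarization after binding to IMAP nanoparticles.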

IRAK4, sequence (Q9NWZ3 whole entry): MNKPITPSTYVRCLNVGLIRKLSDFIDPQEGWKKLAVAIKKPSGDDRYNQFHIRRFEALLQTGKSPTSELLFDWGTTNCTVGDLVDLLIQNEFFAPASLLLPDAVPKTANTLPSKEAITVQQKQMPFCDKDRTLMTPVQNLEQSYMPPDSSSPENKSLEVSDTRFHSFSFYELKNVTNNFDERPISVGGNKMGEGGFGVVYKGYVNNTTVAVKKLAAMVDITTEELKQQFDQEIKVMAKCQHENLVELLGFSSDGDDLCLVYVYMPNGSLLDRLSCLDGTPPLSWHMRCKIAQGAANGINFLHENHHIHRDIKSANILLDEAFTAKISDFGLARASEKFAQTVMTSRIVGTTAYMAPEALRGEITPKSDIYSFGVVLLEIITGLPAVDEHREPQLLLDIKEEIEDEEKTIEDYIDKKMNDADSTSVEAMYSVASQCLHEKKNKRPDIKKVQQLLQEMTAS

IC50 [nM] | Compound
63 | Cn1cc(NC(=O)c2ccc3ccc(N4CCNCC4)nn23)c(C(F)(F)F)n1 [Example 99, N-(1-Methyl-3-(trifluoromethyl)-1H-pyrazol-4-yl)-2-(piperazin-1-yl)pyrrolo[1,2-b]pyridazine-7-carboxamide]
866 | N#Cc1ccccc1NC(=O)c1ccc2ccc(N3CCCNCC3)nn12 [Example 100, N-(2-Cyanophenyl)-2-(1,4-diazepan-1-yl)pyrrolo[1,2-b]pyridazine-7-carboxamide]
574 | N#Cc1ccccc1NC(=O)c1ccc2ccc(N3CCNCC3)nn12 [Example 101, N-(2-cyanophenyl)-2-piperazin-1-ylpyrrolo[1,2-b]pyridazine-7-carboxamide trifluoroacetate]
461 | N#Cc1ccccc1NC(=O)c1ccc2ccc(N3CC4CCC3CN4)nn12 (centres unmarked) [Example 102, N-(2-cyanophenyl)-2-(2,5-diazabicyclo[2.2.2]oct-2-yl)pyrrolo[1,2-b]pyridazine-7-carboxamide trifluoroacetate]
766 | N#Cc1ccccc1NC(=O)c1ccc2ccc(N3CCNCC4(CC4)C3)nn12 [Example 103, N-(2-cyanophenyl)-2-(5,8-diazaspiro[2.6]non-5-yl)pyrrolo[1,2-b]pyridazine-7-carboxamide trifluoroacetate]
1860 | N#Cc1ccccc1NC(=O)c1ccc2ccc(N[C@@H]3CCCC[C@@H]3O)nn12 [Example 104, N-(2-cyanophenyl)-2-{[(1R,2S)-2-hydroxycyclohexyl]amino}pyrrolo[1,2-b]pyridazine-7-carboxamide trifluoroacetate]
6 | N#Cc1ccccc1NC(=O)c1ccc2ccc(N[C@@H]3CCCNC3)nn12 [Example 105, N-(2-cyanophenyl)-2-[(3R)-piperidin-3-ylamino]pyrrolo[1,2-b]pyridazine-7-carboxamide trifluoroacetate]
6 | N#Cc1ccccc1NC(=O)c1ccc2ccc(N[C@@H]3CCCC[C@@H]3N)nn12 [Example 106, 2-{[(1R,2S)-2-aminocyclohexyl]amino}-N-(2-cyanophenyl)pyrrolo [1,2-b]pyridazine-7-carboxamide trifluoroacetate]
26 | N#Cc1ccccc1NC(=O)c1ccc2ccc(N3CCC[C@@H](N)C3)nn12 [Example 107, 2-[(3R)-3-aminopiperidin-1-yl]-N-(2-cyanophenyl) pyrrolo[1,2-b]pyridazine-7-carboxamide trifluoroacetate]
825 | N#Cc1ccccc1NC(=O)c1ccc2ccc(N[C@@H]3CCCC(F)(F)[C@@H]3N)nn12 [Example 110, 2-{[(1R,2R)-2-amino-3,3-difluorocyclohexyl]amino}-N-(2-cyanophenyl)pyrrolo [1,2-b]pyridazine-7-carboxamide trifluoroacetate]
1420 | O=C(Nc1ccccc1C(F)(F)F)c1ccc2ccc(N3CCCNCC3)nn12 [Example 111, 2-(1,4-Diazepan-1-yl)-N-(2-(trifluoromethyl)phenyl)pyrrolo[1,2-b]pyridazine-7-carboxamide]
472 | N[C@H]1CCCC[C@H]1Nc1ccc2ccc(C(=O)Nc3ccccc3C(F)F)n2n1 [Example 112, 2-{[(1R,2S)-2-aminocyclohexyl]amino}-N-[2-(difluoromethyl)phenyl]pyrrolo[1,2-b]pyridazine-7-carboxamide trifluoroacetate]
2020 | O=C(Nc1ccsc1C(F)(F)F)c1ccc2ccc(N3CCCNCC3)nn12 [Example 115, 2-(1,4-diazepan-1-yl)-N-[2-(trifluoromethyl)thiophen-3-yl]pyrrolo[1,2-b]pyridazine-7-carboxamide trifluoroacetate]
221 | N[C@H]1CCCC[C@H]1Nc1ccc2ccc(C(=O)Nc3ccsc3C(F)(F)F)n2n1 [Example 116, 2-{[1R,2S)-2-aminocyclohexyl] amino}-N-[2-(trifluoromethyl) thiophen-3-yl] pyrrolo[1,2-b]pyridazine-7-carboxamide trifluoroacetate]
2980 | N[C@@H]1[C@H](Nc2ccc3ccc(C(=O)Nc4ccsc4C(F)(F)F)n3n2)CCCC1(F)F [Example 117, 2-{[(1R,2R)-2-amino-3,3-difluorocyclohexyyl]amino}-N-[2-(trifluoromethyl)thiophen-3-yl]pyrrolo[1,2-b]pyridazine-7-carboxamide trifluoroacetate]
7390 | N[C@@H]1[C@H](Nc2ccc3ccc(C(=O)Nc4ccccc4C(F)F)n3n2)CCCC1(F)F [Example 118, 2-{[(1R,2R)-2-amino-3,3-difluorocyclohexyl]amino}-N-[2-(difluoromethyl)phenyl]pyrrolo[1,2-b]pyridazine-7-carboxamide trifluoroacetate]
0.5 | Cn1cc(NC(=O)c2ccc3ccc(N4C5CCC4CNC5)nn23)c(C(F)F)n1 [Example 119, 2-(3,8-Diazabicyclo[3.2.1]octan-8-yl)-N-(3-(difluoromethyl)-1-methyl-1H-pyrazol-4-yl)pyrrolo[1,2-b]pyridazine-7-carboxamide]
39 | Cn1cc(NC(=O)c2ccc3ccc(N4C[C@@H]5CNC[C@H]4C5)nn23)c(C(F)(F)F)n1 [Example 122, 2-[(1S,5R)-(1R,5S)-3,6-diazabicyclo[3.2.1]oct-6-yl]-N-[1-methyl-3-(trifluoromethyl)-1H-pyrazol-4-yl]pyrrolo[1,2-b]pyridazine-7-carboxamide]
114 | Cn1cc(NC(=O)c2ccc3ccc(N4C[C@H]5CNC[C@@H]4C5)nn23)c(C(F)(F)F)n1 [Example 123, 2-[(1S,5R)-(1R,5S)-3,6-diazabicyclo[3.2.1]oct-6-yl]-N-[1-methyl-3-(trifluoromethyl)-1H-pyrazol-4-yl]pyrrolo[1,2-b]pyridazine-7-carboxamide]

Compound | IC50 [nM]
Cn1cc(NC(=O)c2ccc3ccc(N4C5CCC4CNC5)nn23)c(C(F)(F)F)n1 [Example 120, 2-(3,8-diazabicyclo[3.2.1]oct-8-yl)-N-[1-methyl-3-(trifluoromethyl)-1H-pyrazol-4-yl]pyrrolo[1,2-b]pyridazine-7-carboxamide trifluoroacetate] | 2
